Reference: article PMC6155273, “Antiprotozoal Activity of Triazole Derivatives of Dehydroabietic Acid and Oleanolic Acid” (Molecules : A Journal of Synthetic Chemistry and Natural …, 2017)
In brackets after ≈: the same amount, converted by molar mass. Like-named read-outs stand apart in the source and are kept apart here.

What was measured:
[1] = test system: L. donovani promastigotes; set-up: method as in PMID 19067375; details: cited from earlier work
[2] = test system: L. infantum promastigotes; test: Leishmanicidal activity on L. infantum promastigotes (resazurin); type: cell-based, Leishmania infantum; details: Leishmania infantum, 48 h, read-out: Leishmanicidal Activity on Promastigotes, L. infantum, IC50
Experimental: (§1) Culture of L. braziliensis (MHOM/BR/75/M2904), and L. infantum (MHOM/FR/91/LEM2259V) was obtained from the Facultad de Farmacia (Universidad Complutense de, Madrid, Spain). The maintenance of the strains, the form of cultivation, and the isolation of shape promastigota were performed following the procedures described by Roldos et al.. The promastigotes were grown at 22 °C in Schneider’s Drosophila medium supplemented with 20% FBS. The assay was performed using a modification of a previous method. Promastigotes (2 × 10^6 parasites/well) were cultured in 96-well plastic plates. Compounds were dissolved in dimethylsulfoxide (DMSO). Different dilutions of the compounds with a final volume up to 200 µL were added. After 48 h at 26 °C, 20 µL of a 2 mM resazurin solution was added, and the oxidation-reduction was quantified at 570 and 600 nm. The solution of resazurin was prepared at 2.5 mM in phosphate buffered solution (PBS), pH 7.4, and filtered through 0.22 µm prior to use. All tests were carried out in triplicate. Resazurin sodium salt was obtained from Sigma-Aldrich (St. Louis, MO, USA) and stored at 4 °C protected from light. The efficacy of each compound was estimated by calculating the IC50 values.

[3] = test system: L. amazonensis promastigote; set-up: method as in PMID 15070160; details: cited from earlier work
[4] = test system: L. braziliensis, L. amazonensis, and L. infantum amastigote; set-up: method as in PMID 26772973; details: read-out: IC50 against amastigote of three Leishmania species; cited from earlier work
T. cruzi epimastigotes = test: Antiepimastigote activity, T. cruzi CL-B5 lacZ (CPRG); type: cell-based, Trypanosoma cruzi; details: Trypanosoma cruzi, clone CL-B5, 72 h
Experimental: For in vitro studies of T. cruzi, the clone CL-B5 was used (donated by Faculty of Pharmacy, Complutense University, Madrid, Spain). Parasites were stably transfected with the Escherichia coli β-galactosidase gene (lacZ). Epimastigotes were grown at 28 °C in liver infusion tryptose broth (Difco, Detroit, MI, USA) with 10% fetal bovine serum (FBS) (Gibco, Carlsbad, CA, USA), penicillin (Ern S.A., Barcelona, Spain), and streptomycin (Reig Jofré S.A., Barcelona, Spain), as described previously, and harvested during the exponential growth phase. Briefly, the screening assay was performed in 96-well microplates (Sarstedt, Inc., Newton, NC, USA) with cultures that had not reached the stationary phase. Epimastigotes were seeded at 2 × 10^5 parasites/mL in 200 µL growth media. The plates were then incubated with the respective compounds at 28 °C for 72 h; afterwards, 50 µL of chlorophenol red-β-D-galactopyranoside (CPRG) solution was added, resulting in a final concentration of 200 µM. The plates were incubated at 37 °C for an additional 4 h and then read at 595 nm. Each concentration was tested in triplicate. The efficacy of each compound was estimated by calculating the IC50 values. These values were calculated by the sigmoidal dose–response curve adjustment using the statistical software program Graph-Pad Prims 3.0 (GraphPhad, San Diego, CA, USA). Benznidazole was used as the reference drug.

[5] = test system: L. braziliensis, L. amazonensis, and L. infantum promastigotes; set-up: method as in PMID 26772973; details: read-out: IC50 against promastigotes of three Leishmania species; cited from earlier work
[6] = test system: L. braziliensis promastigotes; test: Leishmanicidal activity on L. braziliensis promastigotes (resazurin); type: cell-based, Leishmania braziliensis; details: Leishmania braziliensis, 48 h, read-out: Leishmanicidal Activity on Promastigotes, L. braziliensis, IC50
Experimental: as §1

[7] = test system: L. amazonensis amastigote; set-up: method as in PMID 15070160; details: cited from earlier work
[8] = Cytotoxicity on NCTC-Clone 929 fibroblasts (resazurin); type: cell-based; details: mouse
Experimental: The cell line used was NCTC-Clone 929, which was grown in Minimal Essential Medium (Sigma) supplemented with 10% heat-inactivated FBS, penicillin G (100 U/mL), and streptomycin (100 µg/mL). Cell cultures were maintained at 37 °C in a humidified 5% CO2 atmosphere. The procedure for cell viability measurement was evaluated with resazurin by a colorimetric method. The cells were plated in 96-microtiter plates at 3 × 10^4 cells per well in a 100 µL growth medium. The cells were grown overnight at 37 °C, 5% CO2. Thereafter, the medium was removed and the compounds were added in a 200 µL medium for 24 h. After incubation, 20 µL of a 2 mM resazurin solution was added to each well. The plates were incubated for 3 h to allow optimal oxidation-reduction. The reduction of resazurin was determined by dual wavelength absorbance measurement at 490 and 595 nm. Background was subtracted. Each concentration was assayed three times. Medium and drug controls were used in each test as blanks.

[9] = test system: axenically grown L. donovani amastigotes; details: literature value, no reference given; read-out: IC50 against axenically grown L. donovani amastigotes; cited from earlier work

Compound | IC50 [2] [µg/mL] | IC50 (T. cruzi epimastigotes) [µg/mL] | IC50 [6] [µg/mL] | IC50 at 24 h [8] [µg/mL] | also measured
CC(C)c1c(O)ccc2c1CC[C@H]1C(C)(C)CCC[C@]21C [totarol] | – | – | – | – | IC50 against L. donovani promastigotes [1]: 3.5 µg/mL (≈ 12.2 µM); IC90 against L. donovani promastigotes [1]: 6.9 µg/mL (≈ 24.1 µM)
CC1(C)CC[C@]2(C(=O)O)CC[C@]3(C)C(=CC[C@@H]4[C@@]5(C)CC[C@H](O)C(C)(C)[C@@H]5CC[C@]43C)[C@@H]2C1 [OA, Oleanolic acid] | > 256 | > 256 | > 256 | – | IC50 against promastigote stage of L. amazonensis [3]: 10 µg/mL; IC50 [4]: 38 to 69 µM; IC50 [5]: 30 to 66 µM; IC50 against amastigote stage of L. amazonensis [7]: 11 µg/mL
Cc1ccc(S(=O)(=O)n2cc(CCCCC(=O)OC[C@]3(C)CCC[C@]4(C)c5ccc(C(C)C)cc5CCC34)nn2)cc1 (some centres unmarked) [Compound 16] | – | 199 (≈ 336 µM) | – | 129 (≈ 218 µM) | IC50 ([2]; promastigotes): 73 µg/mL (≈ 123 µM); IC50 ([6]; promastigotes): 71 µg/mL (≈ 120 µM)
COc1ccc(-n2cc(CCC(=O)O[C@H]3CC[C@@]4(C)C(CC[C@]5(C)C4CC=C4[C@@H]6CC(C)(C)CC[C@]6(C(=O)O)CC[C@]45C)C3(C)C)nn2)cc1 (some centres unmarked) [Compound 23] | > 256 | > 256 | > 256 | > 256 | –
CC1(C)CC[C@]2(C(=O)O)CC[C@]3(C)C(=CCC4[C@@]5(C)CC[C@H](OC(=O)CCc6cn(Cc7ccc(Cl)cc7)nn6)C(C)(C)C5CC[C@]43C)[C@@H]2C1 (some centres unmarked) [Compound 25] | > 256 | > 256 | > 256 | > 256 | –
CC(C)c1ccc2c(c1)CCC1[C@](C)(C(=O)OCc3cn(-c4ccccc4)nn3)CCC[C@]21C (some centres unmarked) [Compound 1] | – | 46 (≈ 101 µM) | – | > 256 | IC50 ([2]; promastigotes): 60 µg/mL (≈ 131 µM); IC50 ([6]; promastigotes): 53 µg/mL (≈ 116 µM)
CC1(C)CC[C@]2(C(=O)O)CC[C@]3(C)C(=CCC4[C@@]5(C)CC[C@H](OC(=O)CCc6cn(CSc7ccccc7)nn6)C(C)(C)C5CC[C@]43C)[C@@H]2C1 (some centres unmarked) [Compound 29] | > 256 | > 256 | > 256 | > 256 | –
CC(C)c1ccc2c(c1)CCC1[C@](C)(COC(=O)CCc3cn(-c4ccccc4)nn3)CCC[C@]21C (some centres unmarked) [Compound 5] | – | 223 (≈ 459 µM) | – | > 256 | IC50 ([2]; promastigotes): 193 µg/mL (≈ 397 µM); IC50 ([6]; promastigotes): 218 µg/mL (≈ 449 µM)
CC1(C)CC[C@]2(C(=O)O)CC[C@]3(C)C(=CCC4[C@@]5(C)CC[C@H](OC(=O)CCc6cn(-c7ccccc7)nn6)C(C)(C)C5CC[C@]43C)[C@@H]2C1 (some centres unmarked) [Compound 21] | > 256 | > 256 | > 256 | > 256 | –
COC(=O)[C@]12CCC(C)(C)C[C@H]1C1=CCC3[C@@]4(C)CC[C@H](OC(=O)CCc5cn(CSc6ccccc6)nn5)C(C)(C)C4CC[C@@]3(C)[C@]1(C)CC2 (some centres unmarked) [Compound 30] | > 256 | > 256 | > 256 | > 256 | –
CC(C)c1ccc2c(c1)CCC1[C@](C)(C(=O)OCCc3cn(-c4ccccc4)nn3)CCC[C@]21C (some centres unmarked) [Compound 2] | > 256 | > 256 | > 256 | > 256 | –
COC(=O)[C@]12CCC(C)(C)C[C@H]1C1=CCC3[C@@]4(C)CC[C@H](OC(=O)CCc5cn(-c6ccc(OC)cc6)nn5)C(C)(C)C4CC[C@@]3(C)[C@]1(C)CC2 (some centres unmarked) [Compound 24] | > 256 | > 256 | > 256 | > 256 | –
CC(C)c1ccc2c(c1)CCC1[C@](C)(COC(=O)CCc3cn(Cc4ccccc4)nn3)CCC[C@]21C (some centres unmarked) [Compound 7] | > 256 | > 256 | > 256 | > 256 | –
C#CCCC(=O)O[C@H]1CC[C@@]2(C)C(CC[C@]3(C)C2CC=C2[C@@H]4CC(C)(C)CC[C@]4(C(=O)O)CC[C@]23C)C1(C)C (some centres unmarked) [Compound 17] | – | 252 (≈ 469 µM) | – | 196 (≈ 365 µM) | IC50 ([2]; promastigotes): > 256 µg/mL; IC50 ([6]; promastigotes): > 256 µg/mL
C#CCCC(=O)O[C@H]1CC[C@@]2(C)C(CC[C@]3(C)C2CC=C2[C@@H]4CC(C)(C)CC[C@]4(C(=O)OC)CC[C@]23C)C1(C)C (some centres unmarked) [Compound 18] | > 256 | > 256 | > 256 | > 256 | –
CC(C)c1cc2c(cc1O)[C@@]1(C)CCCC(C)(C)[C@@H]1CC2 [ferruginol] | – | – | – | – | IC50 against L. donovani promastigotes [1]: 3.5 µg/mL (≈ 12.2 µM); IC90 against L. donovani promastigotes [1]: 7.0 µg/mL (≈ 24.4 µM)
COc1ccc(-n2cc(CCC(=O)OC[C@]3(C)CCC[C@]4(C)c5ccc(C(C)C)cc5CCC34)nn2)cc1 (some centres unmarked) [Compound 11] | > 256 | > 256 | > 256 | > 256 | –
CC(C)c1ccc2c(c1)CCC1[C@](C)(C(=O)OCc3cn(CSc4ccccc4)nn3)CCC[C@]21C (some centres unmarked) [Compound 3] | > 256 | > 256 | > 256 | > 256 | –
COc1c(C(C)C)cc2c(c1O)[C@@]1(C(=O)O)CCCC(C)(C)[C@@H]1CC2 [12-methoxycarnosic acid] | – | – | – | – | IC50 [9]: 0.75 µM
C#CCCCC(=O)O[C@H]1CC[C@@]2(C)C(CC[C@]3(C)C2CC=C2[C@@H]4CC(C)(C)CC[C@]4(C(=O)OC)CC[C@]23C)C1(C)C (some centres unmarked) [Compound 20] | > 256 | > 256 | > 256 | > 256 | –
CC(C)c1ccc2c(c1)CCC1[C@](C)(COC(=O)CCCCc3cn(CSc4ccccc4)nn3)CCC[C@]21C (some centres unmarked) [Compound 10] | > 256 | > 256 | > 256 | > 256 | –
C[C@H]1[C@H](C)CC[C@]2(C(=O)O)CC[C@]3(C)C(=CC[C@@H]4[C@@]5(C)CC[C@H](O)C(C)(C)[C@@H]5CC[C@]43C)[C@H]12 [Ursolic acid] | – | – | – | – | IC50 against promastigote stage of L. amazonensis [3]: 5 µg/mL; IC50 against amastigote stage of L. amazonensis [7]: 27 µg/mL
CC(C)c1ccc2c(c1)CCC1[C@](C)(C(=O)OCCc3cn(CSc4ccccc4)nn3)CCC[C@]21C (some centres unmarked) [Compound 4] | – | 61 (≈ 118 µM) | – | 189 (≈ 365 µM) | IC50 ([2]; promastigotes): 64 µg/mL (≈ 124 µM); IC50 ([6]; promastigotes): 64 µg/mL (≈ 124 µM)
COC(=O)[C@]12CCC(C)(C)C[C@H]1C1=CCC3[C@@]4(C)CC[C@H](OC(=O)CCc5cn(S(=O)(=O)c6ccc(C)cc6)nn5)C(C)(C)C4CC[C@@]3(C)[C@]1(C)CC2 (some centres unmarked) [Compound 28] | – | 61 (≈ 81.5 µM) | – | > 256 | IC50 ([2]; promastigotes): > 256 µg/mL; IC50 ([6]; promastigotes): > 256 µg/mL
COC(=O)[C@]12CCC(C)(C)C[C@H]1C1=CCC3[C@@]4(C)CC[C@H](OC(=O)CCc5cn(Cc6ccc(Cl)cc6)nn5)C(C)(C)C4CC[C@@]3(C)[C@]1(C)CC2 (some centres unmarked) [Compound 26] | > 256 | > 256 | > 256 | > 256 | –
CC(C)c1ccc2c(c1)CCC1[C@](C)(COC(=O)CCc3cn(CSc4ccccc4)nn3)CCC[C@]21C (some centres unmarked) [Compound 9] | > 256 | > 256 | > 256 | > 256 | –
